Measured values reported in patent US20110212977A1, “P70 S6 KINASE INHIBITOR AND MTOR INHIBITOR COMBINATION THERAPY” (ELI LILLY AND COMPANY, priority 2008, published 2011).

System: U87MG human glioblastoma cells
Assay: Determination of In Vivo Efficacy: U87MG human glioblastoma xenograft tumor volume;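 note: subcutaneous flank xenografts in female athymic nude mice, tumor volume measured twice weekly, log volumes compared with the combined-vehicle control group by repeated measures ANOVA at each time point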
Conditions: for Tumor volume Mean / Signif. (difference in tumor volume relative to the vehicle group): 3 mg/kg of each agent orally once daily; for Tumor volume Mean: U87MG xenograft in nude mice
Description: The vehicle group is given the 2 vehicles (NaCMC Tween 80 and 35% PEG300/10% HPBCD/10% PS80 in H2O) in combination (0.1 mL of each). Treatment is continued for 23 days. Tumor volumes are measured using standard technique twice weekly and reported. Tumor size and body weight are recorded and analyzed bi-weekly. Tumor volume is estimated by using the formula: v=l×w^2×0.536 where l=larger of measured diameter and w=smaller of perpendicular diameter. The analysis uses SAS software version 8.2 (SAS Institutes Inc, Cary, N.C.) to analyze the log tumor volume data using a repeated measures ANOVA model with a spatial power covariance structure. For each time point taken, treatment groups are compared to the vehicle control group. Tumor volumes are given as means±standard errors for each treatment group determined from a repeated measures ANOVA on each group.
The data in the column headed Signif. indicates whether the difference relative to the vehicle group is statistically significant: NS=Not Significant (p>0.05); *=0.01<p≦0.05; **=0.001<<p≦0.01; ***=p≦0.001.

Compound | Tumor volume Mean (Day 7) | Tumor volume Mean (Day 10) | Tumor volume Mean (Day 13) | Tumor volume Mean (Day 16) | Tumor volume Mean (Day 20) | Tumor volume Mean (Day 23) | Tumor volume Mean (Day 27) | Tumor volume Mean (Day 30) | Tumor volume Mean (Day 34) | Statistical difference from the vehicle group (in words) (whole study (throughout), 3 mg/kg orally once daily) | Signif. (difference in tumor volume relative to the vehicle group) (Day 7) | Signif. (difference in tumor volume relative to the vehicle group) (Day 10) | Signif. (difference in tumor volume relative to the vehicle group) (Day 13) | Signif. (difference in tumor volume relative to the vehicle group) (Day 16) | Signif. (difference in tumor volume relative to the vehicle group) (Day 20) | Signif. (difference in tumor volume relative to the vehicle group) (Day 23) | Signif. (difference in tumor volume relative to the vehicle group) (Day 27) | Signif. (difference in tumor volume relative to the vehicle group) (Day 30) | Signif. (difference in tumor volume relative to the vehicle group) (Day 34)
CO[C@H]1CC2CC[C@@H](C)[C@@](O)(O2)C(=O)C(=O)N2CCCC[C@H]2C(=O)O[C@H]([C@H](C)C[C@@H]2CC[C@@H](O)[C@H](OC)C2)CC(=O)[C@H](C)/C=C(\C)[C@@H](O)[C@@H](OC)C(=O)[C@H](C)C[C@H](C)/C=C/C=C/C=C/1C [Rapamycin, rapamycin, reference compound] | 43.1 | 65.6 | 121.9 | 220.4 | 311.5 | 606.0 | 879.7 | 1160.8 | 1429.5 | not significantly different | – | – | – | – | – | – | – | – | –
Cn1cc(-c2ccc(F)c(C(F)(F)F)c2)nc1C1CCN(c2ncnc3[nH]ncc23)CC1 [p70 S6 Kinase Inhibitor] | 43.8 | 79.6 | 118.7 | 159.0 | 233.6 | 539.1 | 928.6 | 1158.5 | 1256.6 | – | NS (NS=Not Significant (p>0.05)) | NS (NS=Not Significant (p>0.05)) | NS (NS=Not Significant (p>0.05)) | * (*=0.01<p≦0.05) | * (*=0.01<p≦0.05) | NS (NS=Not Significant (p>0.05)) | NS (NS=Not Significant (p>0.05)) | NS (NS=Not Significant (p>0.05)) | NS (NS=Not Significant (p>0.05))
